In ChEMBL document CHEMBL1144506, “Fujita-Ban QSAR analysis and CoMFA study of quinoline antagonists of immunostimulatory CpG-oligodeoxynucleotides” (Bioorg Med Chem, 2007):
Where “and” joins values, the source holds several entries; their conditions need not be identical. Identical values can stand only once.

system: WEHI; assay: Inhibition of CpG-oligodeoxynucleotides-induced immunostimulation in mouse WEHI 231 cells; type: functional, cell-based; conditions: Mus musculus, WEHI

| SMILES | EC50 [nM] |
| --- | --- |
| CCN1CCCC1CNc1cc(-c2ccc(C)cc2)nc2ccccc12 (stereo not drawn) | 21.9 |
| CN1CCN(CCNc2cc(-c3ccc(F)cc3)nc3ccccc23)CC1 | 18.6 |
| Fc1ccc(-c2cc(NCCCCN3CCCC3)c3ccccc3n2)cc1 | 20.9 |
| Fc1ccc(-c2cc(NCCN3CCCC3)c3ccccc3n2)cc1 | 24 |
| CN1CCN(c2ccc(-c3cc(NCCCN4CCOCC4)c4ccccc4n3)cc2)CC1 | 2.19 |
| CN1CCN(CCCNc2cc(-c3ccc(CN4CCN(C)CC4)cc3)nc3ccccc23)CC1 | 6.76 |
| CN(C)CCNc1cc(-c2ccc(N3CCCCC3)cc2)nc2ccccc12 | 5.37 |
| CN(C)CCCNc1cc(-c2ccc(N3CCCCC3)cc2)nc2ccccc12 | 15.8 |
| CN1CCN(CCNc2cc(-c3ccc(N4CCN(C)CC4)cc3)nc3ccccc23)CC1 | 1.51 |
| CN(C)CCCCNc1cc(-c2ccc(N3CCCCC3)cc2)nc2ccccc12 | 46.8 |
| CN1CCN(Cc2cccc(-c3cc(NCCC4CCCN4C)c4ccccc4n3)c2)CC1 (stereo not drawn) | 7.76 |
| COc1ccc(-c2cc(NCCN(C)C)c3ccccc3n2)cc1F | 35.5 |
| CN(C)CCNc1cc(-c2ccc(C(F)(F)F)cc2)nc2ccc(F)cc12 | 407 |
| Cc1ccccc1-c1cc(NCCCN2CCOCC2)c2ccccc2n1 | 646 |
| Fc1ccc(-c2cc(NCCN3CCOCC3)c3ccccc3n2)cc1 | 417 |
| CN(C)CCNc1cc(-c2cccc(F)c2)nc2cc(C(F)(F)F)ccc12 | 550 |
| c1ccc2cc(-c3cc(NCCCN4CCOCC4)c4ccccc4n3)ccc2c1 | 3.55 |
| Cc1ccc(-c2cc(NCCCN3CCCC3)c3ccccc3n2)cc1 | 105 |
| CN(C)CCCCNc1cc(-c2ccccc2NCCN(C)C)nc2ccccc12 | 5.89 |
| Cc1cccc(-c2cc(NCCN3CCOCC3)c3ccccc3n2)c1 | 646 |
| CN(C)CCNc1ccccc1-c1cc(NCCN(C)C)c2ccccc2n1 | 6.46 |
| CN(C)CCNc1cc(-c2ccccc2Cl)nc2ccccc12 | 162 |
| CN(C)CCNc1cc(-c2ccccc2N2CCN(C)CC2)nc2ccccc12 | 38.9 |
| Cc1ccc(-c2cc(NCCN3CCOCC3)c3ccccc3n2)cc1 | 490 |
| CN(C)CCNc1cc(-c2ccccc2Cl)nc2ccc(Cl)cc12 | 468 |
| CN(C)CCCCCNc1cc(-c2ccc(F)cc2)nc2ccccc12 | 15.5 |
| CN1CCN(c2ccc(-c3cc(NCCN4CCCC4)c4ccccc4n3)cc2)CC1 | 2.4 |

| SMILES | EC50 [nM] |
| --- | --- |
| CCN1CCCC1CNc1cc(-c2ccc3ccccc3c2)nc2ccccc12 (stereo not drawn) | 5.37 |
| CN(C)CCNc1cc(-c2ccc(N3CCN(C)CC3)cc2)nc2ccc(Cl)cc12 | 1.45 |
| CN(C)CCCCCCNc1cc(-c2ccc(N3CCN(C)CC3)cc2)nc2ccccc12 | 1.91 |
| CN(C)CCNc1cc(-c2ccc(F)cc2)nc2ccc(Cl)cc12 | 52.5 |
| CN(C)CCNc1cc(-c2ccccc2N2CCN(C)CC2)nc2ccc(F)cc12 | 13.2 |
| CCN(CC)CCNc1cc(-c2cccc(C)c2)nc2ccccc12 | 22.4 |
| CN1CCN(c2ccc(-c3cc(NCCCCN4CCCC4)c4ccccc4n3)cc2)CC1 | 5.5 |
| CN(C)CCCNc1cc(-c2ccc(CN3CCN(C)CC3)cc2)nc2ccccc12 | 9.12 |
| Cc1ccc(-c2cc(NCCCN3CCOCC3)c3ccccc3n2)cc1 | 26.9 |
| CN(C)CCNc1cc(-c2ccc(N3CCN(C)CC3)cc2)nc2ccccc12 | 0.759 |
| CN(C)CCCCCNc1cc(-c2ccc(N3CCN(C)CC3)cc2)nc2ccccc12 | 1.45 |
| CN1CCN(Cc2cc(Nc3cc(-c4ccc(F)cc4)nc4ccccc34)cc(CN3CCN(C)CC3)c2O)CC1 | 1.74 |
| Cc1ccc(-c2cc(NCCCN3CCN(C)CC3)c3ccccc3n2)cc1 | 13.8 |
| Oc1c(CN2CCCC2)cc(Nc2cc(-c3ccc4ccccc4c3)nc3ccccc23)cc1CN1CCCC1 | 1.15 |
| CN(C)CCNc1cc(-c2ccc(F)cc2)nc2ccccc12 | 51.3 |
| CN1CCCC1CCNc1cc(-c2ccccc2F)nc2ccccc12 (stereo not drawn) | 204 |
| CN(C)CCCNCc1cccc(-c2cc(NCCCN3CCN(C)CC3)c3ccccc3n2)c1 | 525 |
| CN1CCN(CCCCNc2cc(-c3ccc(F)cc3)nc3ccccc23)CC1 | 15.8 |
| CN1CCN(Cc2ccc(-c3cc(N4CCN(C)CC4)c4ccccc4n3)cc2)CC1 | 58.9 |
| COc1ccc(C2C=C(NCCN(C)C)c3cc(F)ccc3N2)c(F)c1 (stereo not drawn) | 141 |
| CN1CCN(Cc2cccc(-c3cc(NCCCN4CCCC4)c4ccccc4n3)c2)CC1 | 120 |
| CN(C)CCCNCc1cccc(-c2cc(NCCN3CCOCC3)c3ccccc3n2)c1 | 155 |
| CN(C)CCNc1cc(-c2ccc(C(F)(F)F)cc2)nc2ccccc12 | 155 |
| CN(C)CCNc1cc(-c2ccc3ccccc3c2)nc2ccccc12 | 9.12 |
| CN(C)CCCCNc1cc(-c2ccc3ccccc3c2)nc2ccccc12 | 3.72 |
| CN1CCN(Cc2cc(Nc3cc(-c4ccc5ccccc5c4)nc4ccccc34)cc(CN3CCN(C)CC3)c2O)CC1 | 0.24 |

Results, then the molecule that gave them:

| EC50 [nM] | SMILES |
| --- | --- |
| 14.1 | Cc1cccc(-c2cc(NCCC3CCCN3C)c3ccccc3n2)c1 (stereo not drawn) |
| 7.08 | CN(C)CCNc1cc(-c2ccc(CN3CCN(C)CC3)cc2)nc2ccccc12 |
| 1 | CN(C)CCCNc1cc(-c2ccc(N3CCN(C)CC3)cc2)nc2ccccc12 |
| 17 | CCN1CCCC1CNc1cc(-c2ccc(F)cc2)nc2ccccc12 (stereo not drawn) |
| 50.1 | Cc1cccc(-c2cc(NCCCN3CCOCC3)c3ccccc3n2)c1 |
| 72.4 | Cc1cccc(-c2cc(NCCN(C)C)c3ccccc3n2)c1 |
| 67.6 | Fc1ccc(-c2cc(NCCCN3CCOCC3)c3ccccc3n2)cc1 |
| 12.3 | Cc1ccc(-c2cc(NCCN(C)C)c3ccccc3n2)cc1 |
| 13.2 | CN1CCCC1CCNc1cc(-c2ccc(F)cc2)nc2ccccc12 (stereo not drawn) |
| 2 | CN1CCN(c2ccc(-c3cc(NCCC4CCCN4C)c4ccccc4n3)cc2)CC1 (stereo not drawn) |
| 27.5 | Cc1cccc(-c2cc(NCCCN3CCN(C)CC3)c3ccccc3n2)c1 |
| 11.5 | Cc1ccc(-c2cc(NCCCN(C)C)c3ccccc3n2)cc1 |
| 13.2 | Cc1cccc(-c2cc(NCCCN(C)C)c3ccccc3n2)c1 |
| 741 | CN1CCN(c2cc(-c3ccc4ccccc4c3)nc3ccc(-c4ccccc4)cc23)CC1 |
| 417 | CN(C)CCNc1cc(-c2ccccc2F)nc2ccc(F)cc12 |
| 537 | c1cc(CNCCN2CCOCC2)cc(-c2cc(NCCCN3CCCC3)c3ccccc3n2)c1 |
| 3.31 | CN1CCN(c2ccc(-c3cc(NCCN4CCOCC4)c4ccccc4n3)cc2)CC1 |
| 6.46 | CN(C)CCNc1cc(-c2ccc3ccccc3c2)nc2ccc(-c3ccccc3)cc12 |
| 151 | Cc1ccc(-c2cc(Nc3ccc(O)cc3)c3ccccc3n2)cc1 |
| 407 | COc1ccc(-c2cc(NCCN(C)C)c3ccc(C(F)(F)F)cc3n2)cc1F |
| 107 | CN(C)CCCNc1cc(-c2ccccc2F)nc2ccccc12 |
| 1.78 | Cc1ccc(-c2cc(Nc3cc(CN4CCCC4)c(O)c(CN4CCCC4)c3)c3ccccc3n2)cc1 |
| 2.04 | CN1CCCC1CCNc1cc(-c2ccc3ccccc3c2)nc2ccccc12 (stereo not drawn) |
| 12 | c1cc(CNCCCN2CCOCC2)cc(-c2cc(NCCN3CCOCC3)c3ccccc3n2)c1 |
| 52.5 | CN(C)CCCNc1cc(-c2cccc(CNCCCN3CCOCC3)c2)nc2ccccc12 |

| EC50 [nM] | SMILES |
| --- | --- |
| 13.5 | c1ccc2cc(-c3cc(NCCCN4CCCC4)c4ccccc4n3)ccc2c1 |
| 4.9 | CN1CCN(CCCCNc2cc(-c3ccc(N4CCN(C)CC4)cc3)nc3ccccc23)CC1 |
| 20.4 | CN(C)CCCNc1cc(-c2cccc(CNCCN3CCOCC3)c2)nc2ccccc12 |
| 1.23 | CN(C)CCCCNc1cc(-c2ccc(N3CCN(C)CC3)cc2)nc2ccccc12 |
| 1.45 | Cc1ccc(-c2cc(Nc3cc(CN4CCN(C)CC4)c(O)c(CN4CCN(C)CC4)c3)c3ccccc3n2)cc1 |
| 100 | CN1CCN(Cc2cccc(-c3cc(N4CCN(C)CC4)c4ccccc4n3)c2)CC1 |
| 18.6 | CCN(CC)CCNc1cc(-c2ccc(C)cc2)nc2ccccc12 |
| 3.24 | CN1CCN(Cc2ccc(-c3cc(NCCN4CCCC4)c4ccccc4n3)cc2)CC1 |
| 21.9 | CCN1CCCC1CNc1cc(-c2cccc(C)c2)nc2ccccc12 (stereo not drawn) |
| 11 | CN(C)CCCNc1cc(-c2ccc3ccccc3c2)nc2ccccc12 |
| 107 | CN(C)CCCCNc1cc(-c2ccccc2F)nc2ccccc12 |
| 13.8 | Cc1cccc(-c2cc(NCCCCN(C)C)c3ccccc3n2)c1 |
| 132 | CN1CCN(c2ccccc2-c2cc(N3CCN(C)CC3)c3ccccc3n2)CC1 |
| 186 | Cc1ccccc1-c1cc(NCCCN(C)C)c2ccccc2n1 |
| 490 | CN(C)CCNc1cc(-c2ccc(F)cc2)nc2cc(C(F)(F)F)ccc12 |
| 20.4 | CN(C)CCCCCCNc1cc(-c2ccc(F)cc2)nc2ccccc12 |
| 3.98 | CN(C)CCCNc1cc(-c2cccc(CN3CCN(C)CC3)c2)nc2ccccc12 |
| 191 | Fc1ccc(-c2cc(NCCCN3CCCC3)c3ccccc3n2)cc1 |
| 282 | CN(C)CCNc1cc(-c2cccc(F)c2)nc2ccc(F)cc12 |
| 79.4 | COc1ccc(-c2cc(NCCN(C)C)c3cc(F)ccc3n2)cc1F |
| 2.69 | CN1CCN(c2ccc(-c3cc(N4CCN(C)CC4)c4ccccc4n3)cc2)CC1 |
| 195 | Cc1cccc(-c2cc(NCCCN3CCCC3)c3ccccc3n2)c1 |
| 316 | Oc1ccc(Nc2cc(-c3ccc4ccccc4c3)nc3ccccc23)cc1 |
| 5.89 | CN(C)CCCCCCNc1cc(-c2ccc3ccccc3c2)nc2ccccc12 |

same assay, conditions: wehi

| Log EC50 | SMILES |
| --- | --- |
| -8.26 and -7.76 | CN(C)CCCCNc1cc(-c2ccc(F)cc2)nc2ccccc12 |
